{"source": "paper PMC11074101", "about": "(Cell Discovery, 2024)", "assay_type_in_all_cases": "cell-based", "key": {"MCHR2 L89(2.60)A": {"target": "T1, MCHR2 L89(2.60)A (Homo sapiens, UniProt Q969V1, L89A)", "T1 construct": "expressed in transfected cells; host or cells: AD293", "T1 sequence (Q969V1 whole entry L89A, the tested form may be a part)": "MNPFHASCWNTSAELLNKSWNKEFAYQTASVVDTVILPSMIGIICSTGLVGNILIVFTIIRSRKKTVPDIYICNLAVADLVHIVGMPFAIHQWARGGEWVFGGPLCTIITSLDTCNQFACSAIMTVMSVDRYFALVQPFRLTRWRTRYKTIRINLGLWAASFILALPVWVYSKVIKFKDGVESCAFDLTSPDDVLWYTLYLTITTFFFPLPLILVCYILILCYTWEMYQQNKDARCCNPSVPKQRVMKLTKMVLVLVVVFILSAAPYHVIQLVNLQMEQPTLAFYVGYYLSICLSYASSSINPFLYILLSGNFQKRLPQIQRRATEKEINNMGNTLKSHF", "assay": "IP-One IP1 accumulation assay, MCHR2 L89A", "conditions": "n = 3 in triplicate", "text": "(§1) The gene sequences encoding human MCHR1 (residues 70‒405) and MCHR2 (residues 1‒331, with L256^6.40Y mutation) were subcloned into pFastBac vector (Invitrogen) with an N-terminal haemagglutinin signal peptide (HA) and a thermostabilized BRIL fusion, followed by a C-terminal 15-amino acid linker, a LgBiT subunit and two MBPs to facilitate receptor expression and stability. The Gαi construct was designed with dominant-negative mutations S47N, G203A, A326S, and E245A to decrease the affinity of nucleotide-binding and stable Gαβγ complex. The mini-Gαq construct was designed with the C-terminal α-helix (αH5) of Gαq, which is critical for G protein coupling selectivity. The core of the construct, known as the Ras domain, is derived from Gαs. This design choice was made to enable the binding of the nanobody Nb35, which stabilizes the complex for cryo-EM analysis. […]\n(§2) IP1 accumulation assay was applied for the detection of the downstream Gαq signal of MCHR2 using the IP-One HTRF kit (Cisbio). […] Before measurement, the samples were incubated at RT for 30 min and measured with EnVision multi-plate reader (PerkinElmer).\n(§3) Concentration–response curves were evaluated with a three-parameter logistic equation. The significance was determined with one-way ANOVA with Tukey’s test, and P < 0.05 vs wild type was considered statistically significant."}, "MCHR1 L172(2.64)A": {"target": "T2, MCHR1 L172(2.64)A (Homo sapiens, UniProt Q99705, L103A)", "T2 construct": "expressed in transfected cells; host or cells: HEK293", "T2 sequence (Q99705 whole entry L103A, the tested form may be a part)": "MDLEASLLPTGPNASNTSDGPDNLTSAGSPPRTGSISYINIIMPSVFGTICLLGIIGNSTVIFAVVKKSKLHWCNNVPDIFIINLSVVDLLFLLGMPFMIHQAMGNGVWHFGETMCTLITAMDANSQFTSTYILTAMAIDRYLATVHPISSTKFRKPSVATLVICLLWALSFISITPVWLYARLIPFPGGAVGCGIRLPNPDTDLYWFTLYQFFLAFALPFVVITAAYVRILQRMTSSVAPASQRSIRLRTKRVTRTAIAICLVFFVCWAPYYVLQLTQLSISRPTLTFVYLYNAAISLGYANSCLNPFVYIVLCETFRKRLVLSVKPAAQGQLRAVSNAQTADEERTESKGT", "assay": "GloSensor cAMP assay, MCHR1 L172A", "conditions": "HEK293, mean ± S.E.M., n = 3 in triplicate", "text": "(§4) The gene sequences encoding human MCHR1 (residues 70‒405) and MCHR2 (residues 1‒331, with L256^6.40Y mutation) were subcloned into pFastBac vector (Invitrogen) with an N-terminal haemagglutinin signal peptide (HA) and a thermostabilized BRIL fusion, followed by a C-terminal 15-amino acid linker, a LgBiT subunit and two MBPs to facilitate receptor expression and stability. The Gαi construct was designed with dominant-negative mutations S47N, G203A, A326S, and E245A to decrease the affinity of nucleotide-binding and stable Gαβγ complex. The mini-Gαq construct was designed with the C-terminal α-helix (αH5) of Gαq, which is critical for G protein coupling selectivity. The core of the construct, known as the Ras domain, is derived from Gαs. This design choice was made to enable the binding of the nanobody Nb35, which stabilizes the complex for cryo-EM analysis. […] Rat Gβ1 was constructed with a N-terminal 16× His-tag for purification and a C-terminal HiBiT to form a NanoBiT with LgBiT. […] The wild-type and mutants of MCHR1 and MCHR2 were constructed into the pcDNA6.0 vector […] for functional assays.\n(§5) GloSensor cAMP assay was used to detect the downstream Gαi signal of MCHR1 using GloSensor cAMP Reagent (Promega)."}, "MCHR1 I254(ECL2)A": {"target": "T3, MCHR1 I254(ECL2)A (Homo sapiens, UniProt Q99705, I185A)", "T3 construct": "expressed in transfected cells; host or cells: HEK293", "T3 sequence (Q99705 whole entry I185A)": "as the sequence (Q99705 whole entry L103A, the tested form may be a part) above, with A103L, I185A counted along it", "assay": "GloSensor cAMP assay, MCHR1 I254A", "conditions": "HEK293, mean ± S.E.M., n = 3 in triplicate", "text": "as §4, §5"}, "MCHR2 W93(2.64)A": {"target": "T4, MCHR2 W93(2.64)A (Homo sapiens, UniProt Q969V1, W93A)", "T4 construct": "expressed in transfected cells; host or cells: AD293", "T4 sequence (Q969V1 whole entry W93A)": "as the sequence (Q969V1 whole entry L89A, the tested form may be a part) above, with A89L, W93A counted along it", "assay": "IP-One IP1 accumulation assay, MCHR2 W93A", "conditions": "n = 3 in triplicate", "text": "as §1, §2, §3"}, "MCHR1 Y341(6.51)A": {"target": "T5, MCHR1 Y341(6.51)A (Homo sapiens, UniProt Q99705, Y272A)", "T5 construct": "expressed in transfected cells; host or cells: HEK293", "T5 sequence (Q99705 whole entry Y272A)": "as the sequence (Q99705 whole entry L103A, the tested form may be a part) above, with A103L, Y272A counted along it", "assay": "GloSensor cAMP assay, MCHR1 Y341A", "conditions": "HEK293, mean ± S.E.M., n = 3 in triplicate", "text": "as §4, §5"}, "MCHR1 Y362(7.35)A": {"target": "T6, MCHR1 Y362(7.35)A (Homo sapiens, UniProt Q99705, Y293A)", "T6 construct": "expressed in transfected cells; host or cells: HEK293", "T6 sequence (Q99705 whole entry Y293A)": "as the sequence (Q99705 whole entry L103A, the tested form may be a part) above, with A103L, Y293A counted along it", "assay": "GloSensor cAMP assay, MCHR1 Y362A", "conditions": "HEK293, mean ± S.E.M., n = 3 in triplicate", "text": "as §4, §5"}, "MCHR2 V181(ECL2)A": {"target": "T7, MCHR2 V181(ECL2)A (Homo sapiens, UniProt Q969V1, V181A)", "T7 construct": "expressed in transfected cells; host or cells: AD293", "T7 sequence (Q969V1 whole entry V181A)": "as the sequence (Q969V1 whole entry L89A, the tested form may be a part) above, with A89L, V181A counted along it", "assay": "IP-One IP1 accumulation assay, MCHR2 V181A", "conditions": "n = 3 in triplicate", "text": "as §1, §2, §3"}, "MCHR2 D113(3.32)A": {"target": "T8, MCHR2 D113(3.32)A (Homo sapiens, UniProt Q969V1, D113A)", "T8 construct": "expressed in transfected cells; host or cells: AD293", "T8 sequence (Q969V1 whole entry D113A)": "as the sequence (Q969V1 whole entry L89A, the tested form may be a part) above, with A89L, D113A counted along it", "assay": "IP-One IP1 accumulation assay, MCHR2 D113A", "conditions": "n = 3 in triplicate", "text": "as §1, §2, §3"}, "MCHR2 D179(ECL2)A": {"target": "T9, MCHR2 D179(ECL2)A (Homo sapiens, UniProt Q969V1, D179A)", "T9 construct": "expressed in transfected cells; host or cells: AD293", "T9 sequence (Q969V1 whole entry D179A)": "as the sequence (Q969V1 whole entry L89A, the tested form may be a part) above, with A89L, D179A counted along it", "assay": "IP-One IP1 accumulation assay, MCHR2 D179A", "conditions": "n = 3 in triplicate", "text": "as §1, §2, §3"}, "MCHR2 V194(5.35)A": {"target": "T10, MCHR2 V194(5.35)A (Homo sapiens, UniProt Q969V1, V194A)", "T10 construct": "expressed in transfected cells; host or cells: AD293", "T10 sequence (Q969V1 whole entry V194A)": "as the sequence (Q969V1 whole entry L89A, the tested form may be a part) above, with A89L, V194A counted along it", "assay": "IP-One IP1 accumulation assay, MCHR2 V194A", "conditions": "n = 3 in triplicate", "text": "as §1, §2, §3"}, "MCHR2 P280(ECL3)A": {"target": "T11, MCHR2 P280(ECL3)A (Homo sapiens, UniProt Q969V1, P280A)", "T11 construct": "expressed in transfected cells; host or cells: AD293", "T11 sequence (Q969V1 whole entry P280A)": "as the sequence (Q969V1 whole entry L89A, the tested form may be a part) above, with A89L, P280A counted along it", "assay": "IP-One IP1 accumulation assay, MCHR2 P280A", "conditions": "n = 3 in triplicate", "text": "as §1, §2, §3"}, "MCHR1 Q171(2.63)A": {"target": "T12, MCHR1 Q171(2.63)A (Homo sapiens, UniProt Q99705, Q102A)", "T12 construct": "expressed in transfected cells; host or cells: HEK293", "T12 sequence (Q99705 whole entry Q102A)": "as the sequence (Q99705 whole entry L103A, the tested form may be a part) above, with Q102A, A103L counted along it", "assay": "GloSensor cAMP assay, MCHR1 Q171A", "conditions": "HEK293, mean ± S.E.M., n = 3 in triplicate", "text": "as §4, §5"}, "MCHR2 A185(45.51)F": {"target": "T13, MCHR2 A185(45.51)F (Homo sapiens, UniProt Q969V1, A185F)", "T13 construct": "expressed in transfected cells; host or cells: AD293", "T13 sequence (Q969V1 whole entry A185F)": "as the sequence (Q969V1 whole entry L89A, the tested form may be a part) above, with A89L, A185F counted along it", "assay": "IP-One IP1 accumulation assay, MCHR2 A185F", "conditions": "n = 3 in triplicate", "text": "as §1, §2, §3"}, "MCHR2 Y288(7.35)A": {"target": "T14, MCHR2 Y288(7.35)A (Homo sapiens, UniProt Q969V1, Y288A)", "T14 construct": "expressed in transfected cells; host or cells: AD293", "T14 sequence (Q969V1 whole entry Y288A)": "as the sequence (Q969V1 whole entry L89A, the tested form may be a part) above, with A89L, Y288A counted along it", "assay": "IP-One IP1 accumulation assay, MCHR2 Y288A", "conditions": "n = 3 in triplicate", "text": "as §1, §2, §3"}, "MCHR2 Q271(6.55)A": {"target": "T15, MCHR2 Q271(6.55)A (Homo sapiens, UniProt Q969V1, Q271A)", "T15 construct": "expressed in transfected cells; host or cells: AD293", "T15 sequence (Q969V1 whole entry Q271A)": "as the sequence (Q969V1 whole entry L89A, the tested form may be a part) above, with A89L, Q271A counted along it", "assay": "IP-One IP1 accumulation assay, MCHR2 Q271A", "conditions": "n = 3 in triplicate", "text": "as §1, §2, §3"}, "MCHR2 Q92(2.63)A": {"target": "T16, MCHR2 Q92(2.63)A (Homo sapiens, UniProt Q969V1, Q92A)", "T16 construct": "expressed in transfected cells; host or cells: AD293", "T16 sequence (Q969V1 whole entry Q92A)": "as the sequence (Q969V1 whole entry L89A, the tested form may be a part) above, with A89L, Q92A counted along it", "assay": "IP-One IP1 accumulation assay, MCHR2 Q92A", "conditions": "n = 3 in triplicate", "text": "as §1, §2, §3"}, "MCHR2 F186(45.52)A": {"target": "T17, MCHR2 F186(45.52)A (Homo sapiens, UniProt Q969V1, F186A)", "T17 construct": "expressed in transfected cells; host or cells: AD293", "T17 sequence (Q969V1 whole entry F186A)": "as the sequence (Q969V1 whole entry L89A, the tested form may be a part) above, with A89L, F186A counted along it", "assay": "IP-One IP1 accumulation assay, MCHR2 F186A", "conditions": "AD293, mean ± S.E.M., n = 3 in triplicate", "text": "as §1, §2, §3"}, "[1]": {"conditions": "AD293, IP-One HTRF, 37 °C 1 h, mean ± S.E.M., P < 0.0001 vs WT"}}, "data": [{"smiles": "CSCC[C@@H]1NC(=O)[C@@H](NC(=O)[C@H](CCCNC(=N)N)NC(=O)[C@H](CC(C)C)NC(=O)[C@H](CCSC)NC(=O)[C@H](CC(=O)O)NC(=O)[C@H](Cc2ccccc2)NC(=O)[C@@H](N)CC(=O)O)CSSC[C@@H](C(=O)N[C@@H](Cc2c[nH]c3ccccc23)C(=O)N[C@@H](CCC(N)=O)C(=O)N[C@H](C(=O)O)C(C)C)NC(=O)[C@@H]2CCCN2C(=O)[C@H](CCCNC(=N)N)NC(=O)[C@H](Cc2ccc(O)cc2)NC(=O)[C@H](C(C)C)NC(=O)[C@H](CCCNC(=N)N)NC(=O)CNC(=O)[C@H](CC(C)C)NC1=O", "note": "[MCH, Melanin-concentrating hormone]", "values": [{"measurement": "EC50", "setting": "MCHR2 L89(2.60)A; AD293, IP-One HTRF, 37 °C 1 h, mean ± S.E.M., P 0.1322 vs WT", "value": 9.12, "unit": "nM"}, {"measurement": "Emax", "setting": "MCHR2 L89(2.60)A; AD293, mean ± S.E.M.", "value": "104 ± 2", "unit": "%"}, {"measurement": "Emax", "setting": "MCHR1 L172(2.64)A", "value": "107 ± 3", "unit": "%"}, {"measurement": "Emax", "setting": "MCHR1 I254(ECL2)A", "value": "98 ± 3", "unit": "%"}, {"measurement": "EC50", "setting": "MCHR2 W93(2.64)A; [1]", "value": 6030, "unit": "nM"}, {"measurement": "Emax", "setting": "MCHR2 W93(2.64)A; AD293, mean ± S.E.M.", "value": "91 ± 1", "unit": "%"}, {"measurement": "Emax", "setting": "MCHR1 Y341(6.51)A", "value": "97 ± 1", "unit": "%"}, {"measurement": "Emax", "setting": "MCHR1 Y362(7.35)A", "value": 95, "unit": "%"}, {"measurement": "EC50", "setting": "MCHR2 V181(ECL2)A; [1]", "value": 53.7, "unit": "nM"}, {"measurement": "Emax", "setting": "MCHR2 V181(ECL2)A; AD293, mean ± S.E.M.", "value": "96 ± 1", "unit": "%"}, {"measurement": "EC50", "setting": "MCHR2 D113(3.32)A; [1]", "value": 2040, "unit": "nM"}, {"measurement": "Emax", "setting": "MCHR2 D113(3.32)A; AD293, mean ± S.E.M.", "value": "101 ± 2", "unit": "%"}, {"measurement": "EC50", "setting": "MCHR2 D179(ECL2)A; [1]", "value": 1290, "unit": "nM"}, {"measurement": "Emax", "setting": "MCHR2 D179(ECL2)A; AD293, mean ± S.E.M.", "value": 85, "unit": "%"}, {"measurement": "EC50", "setting": "MCHR2 V194(5.35)A; [1]", "value": 33.1, "unit": "nM"}, {"measurement": "Emax", "setting": "MCHR2 V194(5.35)A; AD293, mean ± S.E.M.", "value": "98 ± 1", "unit": "%"}, {"measurement": "EC50", "setting": "MCHR2 P280(ECL3)A; [1]", "value": 182, "unit": "nM"}, {"measurement": "Emax", "setting": "MCHR2 P280(ECL3)A; AD293, mean ± S.E.M.", "value": "90 ± 2", "unit": "%"}, {"measurement": "Emax", "setting": "MCHR1 Q171(2.63)A", "value": "57 ± 6", "unit": "%"}, {"measurement": "EC50", "setting": "MCHR2 A185(45.51)F; [1]", "value": 12600, "unit": "nM"}, {"measurement": "Emax", "setting": "MCHR2 A185(45.51)F; AD293, mean ± S.E.M.", "value": "96 ± 1", "unit": "%"}, {"measurement": "EC50", "setting": "MCHR2 Y288(7.35)A; [1]", "value": 1230, "unit": "nM"}, {"measurement": "Emax", "setting": "MCHR2 Y288(7.35)A; AD293, mean ± S.E.M.", "value": "84 ± 2", "unit": "%"}, {"measurement": "EC50", "setting": "MCHR2 Q271(6.55)A; [1]", "value": 27.5, "unit": "nM"}, {"measurement": "Emax", "setting": "MCHR2 Q271(6.55)A; AD293, mean ± S.E.M.", "value": "101 ± 1", "unit": "%"}, {"measurement": "EC50", "setting": "MCHR2 Q92(2.63)A; [1]", "value": 9120, "unit": "nM"}, {"measurement": "Emax", "setting": "MCHR2 Q92(2.63)A; AD293, mean ± S.E.M.", "value": "25 ± 2", "unit": "%"}, {"measurement": "Emax", "setting": "MCHR2 F186(45.52)A", "value": 98, "unit": "%"}]}]}
